Experiments:
[1] = test system: Memory T cells; experiment: Clinical study: lymphocyte phenotyping by flow cytometry; assay type: in vivo, human; conditions: cycle 1, day 22, peripheral blood, 5/7 d schedule
Description: (§1) Sample Analysis • Aiolos was measured by flow cytometry on samples of whole blood drawn at 0 hours (pre-dose) and at 1.5 and 5 hours post-dose on cycle 1, day 1 • Archival or screening formalin-fixed paraffin-embedded (FFPE) tissues were stained for MYC and BCL2 expression6 on a Bond-Max automated slide stainer (Leica Microsystems, Buffalo Grove, Ill.) • Pathology review was performed on a hematoxylin and eosin stained slides to identify the area of DLBCL • RNA extraction and NanoString nCounter Analysis System lymphoma subtyping test (Seattle, Wash.) were performed as reported previously7 on core needle and excisional biopsy samples • For lymphocyte phenotyping, whole blood was drawn pre-dose (baseline) and 1.5 hours post-dose on cycle 1 day 15, cycle 1 day 22, cycle 2 day 15, and cycle 2 day 22 • Memory T cells ([…]) were measured by flow cytometry.

[2] = test system: Human CD34+ bone marrow cells; experiment: In vitro myeloid differentiation assay; assay type: cell-based; design: dose or concentration left out as unconfirmed; conditions: after 14 days
Description: Human CD34+ bone marrow cells were seeded in stem cell factor, Fms-like tyrosine kinase 3 ligand (F1t3L) and granulocyte colony-stimulating factor (G-CSF), followed by 6 days with media plus G-CSF. Compound 1 […] was added continuously or on a 5-of-7-day (5/7 d) schedule. After 14 days, myeloid maturation stages were measured by CD34, CD33, and CD11b flow cytometry.

[3] = test system: patients with relapsed or refractory DLBCL; experiment: Clinical study: response (International Workshop criteria for NHL), by schedule and biomarker; assay type: in vivo, human
Description: as §1

[4] = test system: patients with relapsed or refractory DLBCL; experiment: Clinical study: dose-limiting toxicities, adverse events, dose modifications
Description: Adverse events (AEs) were graded by NCI CTCAE v4.0, and responses were investigator assessed using International Workshop criteria for NHL.

[5] = 4 mg 5/7 d DLBCL-2 cohort (n=17)
[6] = 5 mg 5/7 d DLBCL-2 cohort (n=3)
[7] = AEs occurring in >20% of patients, 3 mg 28/28 d (n = 25)
[8] = AEs occurring in >20% of patients, 4 mg 5/7 d (n = 21)
[9] = Grade 3/4 AEs occurring in >1 patient, 3 mg 28/28 d (n = 25)
[10] = Grade 3/4 AEs occurring in >1 patient, 4 mg 5/7 d (n = 21)

In the case of `Cc1nc2cccc(N)c2c(=O)n1C1CCC(=O)NC1=O` (stereo not drawn) [Compound 1, 3-(5-amino-2-methyl-4-oxo-4H-quinazolin-3-yl)-piperidine-2,6-dione], the “median increase from baseline in cytotoxic memory T cells” value [1] is reported as 266%, the “median increase from baseline in helper memory T cells” value [1] is reported as 75% and the “decreased mature neutrophils compared with vehicle” value ([2]; continuous exposure) is reported as 90%. For the same compound, the decreased mature neutrophils ([2]; exposure for 5/7 d) was 50%, the “complete responses [CR]” value ([3]; 3 mg 28/28 d cohort (n=22)) was 2 and the “overall response rate (ORR)” value ([3]; 3 mg 28/28 d cohort (n=22)) was 27%. The “partial responses [PR]” value ([3]; 3 mg 28/28 d cohort (n=22)) was 4, the CR [3, 5] was 2 and the ORR [3, 5] was 39%. For the same compound, the PR [3, 5] was 5, the CR [3, 6] was 1 and the ORR [3, 6] was 100%. The PR [3, 6] was 2, the “PFS” value ([3]; Cell of Origin ABC) was 99 days and the “PFS” value ([3]; Cell of Origin GCB) was 100 days. For the same compound, the ORR ([3]; Cell of Origin Non-ABC) was 8/27 (30%), the “PFS” value ([3]; Cell of Origin Non-ABC) was 64 days and the ORR ([3]; Cell of Origin Non-GCB) was 6/18 (33%). For the same compound, the “PFS” value ([3]; Cell of Origin Non-GCB) was 74 days, the “PFS” value ([3]; Cell of Origin Unclassified) was 51 days and the “PFS” value ([3]; MYC/BCL2 dual expressor Negative) was 70 days. The “PFS” value ([3]; MYC/BCL2 dual expressor Positive) was 100 days, the “Relative dose intensity (median)” value ([4]; 3 mg 28/28 d (daily continuously, n = 25)) was 78.6% and the “DLTs (kind): febrile neutropenia” value ([4]; 3 mg qd) was “Grade 3 febrile”. For the same compound, the “DLTs (kind): neutropenia” value ([4]; 3 mg qd) was “Grade 4”, the “DLTs (kind): sepsis” value ([4]; 3 mg qd) was “Grade 4 sepsis” and the “AE asthenia, patients” value ([4]; 4 mg 5/7 d) was 29%. For the same compound, the “AE constipation, patients” value ([4]; 4 mg 5/7 d) was 29%, the “AE neutropenia, patients” value ([4]; 4 mg 5/7 d) was 52% and the “AE pyrexia, patients” value ([4]; 4 mg 5/7 d) was 57%. For the same compound, the “DLTs (kind): neutropenia” value ([4]; 4 mg 5/7 d) was “Grade 4”, the “serious treatment-related AE neck pain” value ([4]; 4 mg 5/7 d) was 5% and the “serious treatment-related AE pneumonia” value ([4]; 4 mg 5/7 d) was 5%. For the same compound, the “serious treatment-related AE pneumonitis” value ([4]; 4 mg 5/7 d) was 5%, the “Relative dose intensity (median)” value ([4]; 4 mg 5/7 d (n = 21)) was 97.5% and the DLTs reported ([4]; 4 mg 5/7 d, DLBCL-2 expansion, 19 DLT-evaluable patients) was “No DLTs”. The “dose-limiting toxicities during cycle 1” value ([4]; 4 mg, 21/28 d cohort (n=3)) was “no dose-limiting toxicities”, the “patients requiring subsequent dose reduction due to grade 4 neutropenia” value ([4]; 4 mg, 21/28 d cohort (n=3)) was 3 patients and the “DLTs (kind): febrile neutropenia” value ([4]; 5 mg 5/7 d) was “Grade 3”. The “DLTs (kind): pneumonitis” value ([4]; 5 mg 5/7 d) was “Grade 3”, the MTD ([4]; 5/7 d schedule) was 4 mg and the NTD ([4]; 5/7 d schedule) was 5 mg. For the same compound, the severity of neutropenia ([4]; 5/7 d schedule (FIG. 2)) was “mitigated”, the “non-tolerated dose (NTD)” value ([4]; 21/28 d schedule) was 4 mg and the Anemia [4, 7] was 13 (52) n (%). For the same compound, the Appetite [4, 7] was 1 (4) n (%), the Arrhythmia [4, 7] was 0 n (%) and the Asthenia [4, 7] was 14 (56) n (%). The Constipation [4, 7] was 4 (16) n (%), the Cough [4, 7] was 10 (40) n (%) and the Decreased [4, 7] was 3 (12) n (%). The Diarrhea [4, 7] was 5 (20) n (%), the Dyspnea [4, 7] was 4 (16) n (%) and the Nausea [4, 7] was 4(16) n (%). For the same compound, the Neutropenia [4, 7] was 19 (76) n (%), the Peripheral edema [4, 7] was 7 (28) n (%) and the Pyrexia [4, 7] was 10 (40) n (%). The Thrombocytopenia [4, 7] was 9 (36) n (%), the Vomiting [4, 7] was 4 (16) n (%) and the Anemia [4, 8] was 5 (24) n (%). For the same compound, the Appetite [4, 8] was 3 (14) n (%), the Arrhythmia [4, 8] was 2 (10) n (%) and the Asthenia [4, 8] was 6 (29) n (%). The Constipation [4, 8] was 6 (29) n (%), the Cough [4, 8] was 2 (10) n (%) and the Decreased [4, 8] was 3 (14) n (%). For the same compound, the Diarrhea [4, 8] was 3 (14) n (%), the Dyspnea [4, 8] was 5 (24) n (%) and the Nausea [4, 8] was 5 (24) n (%). For the same compound, the Neutropenia [4, 8] was 11 (52) n (%), the Peripheral edema [4, 8] was 4 (19) n (%) and the Pyrexia [4, 8] was 12 (57) n (%). For the same compound, the Thrombocytopenia [4, 8] was 5 (21) n (%), the Vomiting [4, 8] was 5 (24) n (%) and the “DLTs, n (%)” value ([4]; DLBCL-2, 4 mg 5/7 d, 19 DLT evaluable) was 0 n (%). The “DLTs, n (%)” value ([4]; DLBCL-2, 4 mg 21/28 d, 3 DLT evaluable) was 0 n (%), the “DLTs, n (%)” value ([4]; DLBCL-2, 5 mg 5/7 d, 5 DLT evaluable) was 2 (40) n (%) and the Anemia [4, 9] was 3 (12) n (%). For the same compound, the Appetite [4, 9] was 0 n (%), the Arrhythmia [4, 9] was 0 n (%) and the Asthenia [4, 9] was 5 (20) n (%). The Constipation [4, 9] was 0 n (%), the Cough [4, 9] was 0 n (%) and the Decreased [4, 9] was 0 n (%). For the same compound, the Diarrhea [4, 9] was 0 n (%), the Dyspnea [4, 9] was 0 n (%) and the Nausea [4, 9] was 0 n (%). The Neutropenia [4, 9] was 16 (64) n (%), the Peripheral edema [4, 9] was 0 n (%) and the Pyrexia [4, 9] was 0 n (%). The Thrombocytopenia [4, 9] was 3 (12) n (%), the Vomiting [4, 9] was 0 n (%) and the Anemia [4, 10] was 0 n (%). The Appetite [4, 10] was 0 n (%), the Arrhythmia [4, 10] was 2 (7) n (%) and the Asthenia [4, 10] was 0 n (%). The Constipation [4, 10] was 0 n (%), the Cough [4, 10] was 0 n (%) and the Decreased [4, 10] was 0 n (%). The Diarrhea [4, 10] was 0 n (%), the Dyspnea [4, 10] was 0 n (%) and the Nausea [4, 10] was 0 n (%). The Neutropenia [4, 10] was 8 (38) n (%), the Peripheral edema [4, 10] was 0 n (%) and the Pyrexia [4, 10] was 0 n (%). For the same compound, the Thrombocytopenia [4, 10] was 0 n (%), the Vomiting [4, 10] was 0 n (%) and the “DLTs, n (%)” value ([4]; NHL-1, 3 mg qd, 18 DLT evaluable) was 3 (17) n (%).

From patent publication US10159675B2, “Cycling therapy using 3-(5-amino-2-methyl-4-oxo-4H-quinazolin-3-yl)-piperidine-2,6-dione” (Celgene Corporation, priority 2015, dated 2018)
